Key:
CDK2/Cyclin E1 = CDK2/Cyclin E1 (Homo sapiens (Human), UniProt P24941); experiment: biochemical; details: CDK2_Ki (nM), phosphorylated CDK2/Cyclin E1, 150 μM ATP, Morrison tight-binding fit
Experimental: The assay was initiated with the addition of ATP, following a fifteen minutes pre-incubation of enzyme and inhibitor at room temperature in the reaction mixture. The reaction was stopped after 45 minutes at room temperature by the addition of 50 μL of 80 mM EDTA, pH 7.5.

CDK6/Cyclin D1 = CDK6/Cyclin D1 (Homo sapiens (Human), UniProt Q00534); experiment: biochemical; details: CDK6_Ki (nM), non-phosphorylated CDK6/Cyclin D1, 2 mM ATP, Morrison fit
Chain of CDK6/Cyclin D1 (Q00534 whole entry): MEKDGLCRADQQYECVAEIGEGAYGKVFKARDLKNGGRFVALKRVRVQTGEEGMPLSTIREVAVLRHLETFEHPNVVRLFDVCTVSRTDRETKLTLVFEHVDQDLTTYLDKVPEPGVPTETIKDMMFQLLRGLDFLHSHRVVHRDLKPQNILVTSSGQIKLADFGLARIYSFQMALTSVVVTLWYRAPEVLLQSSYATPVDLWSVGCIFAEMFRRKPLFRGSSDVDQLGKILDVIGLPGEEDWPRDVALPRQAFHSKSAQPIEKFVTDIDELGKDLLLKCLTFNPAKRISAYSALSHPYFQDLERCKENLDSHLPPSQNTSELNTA
Chain of CDK6/Cyclin D1 (P24385 whole entry partner): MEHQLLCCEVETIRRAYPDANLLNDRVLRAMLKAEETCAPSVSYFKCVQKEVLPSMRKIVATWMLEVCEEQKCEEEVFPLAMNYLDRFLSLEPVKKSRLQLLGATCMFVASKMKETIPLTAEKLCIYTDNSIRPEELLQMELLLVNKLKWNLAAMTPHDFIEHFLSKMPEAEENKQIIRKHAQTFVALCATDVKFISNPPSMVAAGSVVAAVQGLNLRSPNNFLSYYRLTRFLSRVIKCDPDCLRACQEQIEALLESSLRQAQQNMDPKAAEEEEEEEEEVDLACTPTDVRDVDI

| Ki (CDK2/Cyclin E1) [nM] | Ki (CDK6/Cyclin D1) [nM] | Structure (SMILES) |
| --- | --- | --- |
| 0.48 | 1.14 | CCS(=O)(=O)N1CCC(Nc2ncc3ccc(=O)n(C4CCCC4)c3n2)CC1 [Example 16, 8-cyclopentyl-2-{[1-(ethylsulfonyl)piperidin-4-yl]amino}pyrido[2,3-d]pyrimidin-7(8H)-one] |
| 1.88 | 0.55 | COCc1cc2cnc(NC3CCN(S(C)(=O)=O)CC3)nc2n(C2CCCC2)c1=O [Example 142, 8-cyclopentyl-6-(methoxymethyl)-2-{[1-(methylsulfonyl)piperidin-4-yl]amino}pyrido[2,3-d]pyrimidin-7(8H)-one] |
| 2.63 | 1.32 | CS(=O)(=O)N1CC[C@H](Nc2ncc3cc(N)c(=O)n(C4CCCC4)c3n2)[C@H](F)C1 (single isomer, unassigned; isomer b) [Example 150, 6-amino-8-cyclopentyl-2-{[(3R*,4S*)-3-fluoro-1-(methylsulfonyl)piperidin-4-yl]amino}pyrido[2,3-d]pyrimidin-7(8H)-one-Isomer B] |
| 4.43 | 1.63 | COCc1cc2cnc(NC3CCN(S(C)(=O)=O)CC3)nc2n([C@H]2CCC[C@H]2C)c1=O [Example 49, 6-(methoxymethyl)-8-[(1S,2R)-2-methylcyclopentyl]-2-{[1-(methylsulfonyl)piperidin-4-yl]amino}pyrido[2,3-d]pyrimidin-7(8H)-one] |
| 155 | 46.1 | CNS(=O)(=O)N1CCC(Nc2ncc3cc(C)c(=O)n([C@@H]4CCC[C@@H]4C)c3n2)CC1 [Example 42, N-methyl-4-({6-methyl-8-[(1R,2S)-2-methylcyclopentyl]-7-oxo-7,8-dihydropyrido[2,3-d]pyrimidin-2-yl}amino)piperidine-1-sulfonamide] |
| 0.35 | 0.83 | C[C@@]1(O)CCC[C@H]1n1c(=O)ccc2cnc(NC3CCN(S(=O)(=O)C4CCS(=O)(=O)C4)CC3)nc21 (single isomer, unassigned) [Example 70] |
| 4.13 | 3.37 | C[C@]1(O)CCC[C@@H]1n1c(=O)ccc2cnc(NC3CCN(S(=O)(=O)CF)CC3)nc21 (single isomer, unassigned) [Example 59, (+)-2-({1-[(fluoromethyl)sulfonyl]piperidin-4-yl}amino)-8-[(1R*,2R*)-2-hydroxy-2-methylcyclopentyl]pyrido[2,3-d]pyrimidin-7(8H)-one] |
| 0.51 | 1.53 | C[C@@H]1[C@H](O)CC[C@H]1n1c(=O)c(Cl)cc2cnc(NC3CCN(S(C)(=O)=O)CC3)nc21 (single isomer, unassigned) [Example 203, (−)-6-chloro-8-[(1R*,2S*,3R*)-3-hydroxy-2-methylcyclopentyl]-2-{[1-(methylsulfonyl)piperidin-4-yl]amino}pyrido[2,3-d]pyrimidin-7(8H)-one] |
| 7.32 | 9.59 | C[C@]1(O)CCC[C@@H]1n1c(=O)ccc2cnc(NC3CCN(S(=O)(=O)c4nccs4)CC3)nc21 (single isomer, unassigned) [Example 79, (+)-8-[(1R*,2R*)-2-hydroxy-2-methylcyclopentyl]-2-{[1-(1,3-thiazol-2-ylsulfonyl)piperidin-4-yl]amino}pyrido[2,3-d]pyrimidin-7(8H)-one] |
| 1.98 | 8.29 | Cn1cnc(S(=O)(=O)N2CCC(Nc3ncc4ccc(=O)n([C@H]5CCC[C@]5(C)O)c4n3)CC2)c1 (single isomer, unassigned) [Example 85, (+)-8-[(1R*,2R*)-2-hydroxy-2-methylcyclopentyl]-2-({1-[(1-methyl-1H-imidazol-4-yl)sulfonyl]piperidin-4-yl}amino)pyrido[2,3-d]pyrimidin-7(8H)-one] |
| 3.76 | 28.9 | C[C@]1(O)CCC[C@@H]1n1c(=O)c(CC(N)=O)cc2cnc(NC3CCN(S(C)(=O)=O)CC3)nc21 (single isomer, unassigned) [Example 180, (+)-2-(8-[(1R*,2R*)-2-hydroxy-2-methylcyclopentyl]-2-{[1-(methylsulfonyl)piperidin-4-yl]amino}-7-oxo-7,8-dihydropyrido[2,3-d]pyrimidin-6-yl)acetamide] |
| 0.13 | 0.36 | C[C@@H]1[C@H](O)CCC[C@H]1n1c(=O)ccc2cnc(NC3CCN(S(C)(=O)=O)CC3)nc21 (single isomer, unassigned) [Example 221, (−)-8-[(1S*,2R*,3S*)-3-hydroxy-2-methylcyclohexyl]-2-{[1-(methylsulfonyl)piperidin-4-yl]amino}pyrido[2,3-d]pyrimidin-7(8H)-one] |
| 9.51 | 4.72 | Cc1cc2cnc(NC3CCN(S(C)(=O)=O)CC3)nc2n([C@H]2C[C@@H](O)C[C@H]2C)c1=O (single isomer, unassigned) [Example 200, (+)-8-[(1R*,2S*,4R*)-4-hydroxy-2-methylcyclopentyl]-6-methyl-2-{[1-(methylsulfonyl)piperidin-4-yl]amino}pyrido[2,3-d]pyrimidin-7(8H)-one] |
| 20.9 | 10.1 | C[C@@]1(O)CCC[C@H]1n1c(=O)c(Cl)cc2cnc(N[C@@H]3CCN(S(C)(=O)=O)C[C@@H]3F)nc21 (single isomer, unassigned) [Example 192, (+)-6-chloro-2-{[(3R*,4S*)-3-fluoro-1-(methylsulfonyl)piperidin-4-yl]amino}-8-[(1R,2R)-2-hydroxy-2-methylcyclopentyl]pyrido[2,3-d]pyrimidin-7(8H)-one] |
| 0.51 | 184 | C[C@@]1(O)CCC[C@H]1n1c(=O)ccc2cnc(NC3CCN(S(=O)(=O)CS(C)(=O)=O)CC3)nc21 [Example 190, 8-[(1R,2R)-2-hydroxy-2-methylcyclopentyl]-2-[(1-{[(methylsulfonyl)methyl]sulfonyl}piperidin-4-yl)amino]pyrido[2,3-d] pyrimidin-7(8H)-one] |
| 0.21 | 2.47 | CC(F)(F)CNS(=O)(=O)N1CCC(Nc2ncc3ccc(=O)n([C@@H]4CCC[C@@]4(C)O)c3n2)CC1 (single isomer, unassigned) [Example 66, (−)-N-(2,2-difluoropropyl)-4-({8-[(1R*,2R*)-2-hydroxy-2-methylcyclopentyl]-7-oxo-7,8-dihydropyrido[2,3-d]pyrimidin-2-yl}amino)piperidine-1-sulfonamide] |
| 7.03 | 6.24 | C[C@]1(O)CCC[C@@H]1n1c(=O)ccc2cnc(NC3CCN(S(=O)(=O)c4nncs4)CC3)nc21 (single isomer, unassigned) [Example 81, (+)-8-[(1R*,2R*)-2-hydroxy-2-methylcyclopentyl]-2-{[1-(1,3,4-thiadiazol-2-ylsulfonyl)piperidin-4-yl]amino}pyrido[2,3-d]pyrimidin-7(8H)-one] |
| 0.1 | 1.99 | C[C@@]1(O)CCC[C@H]1n1c(=O)ccc2cnc(NC3CCN(S(N)(=O)=O)CC3)nc21 (single isomer, unassigned) [Example 183, (−)-4-({8-[(1R*,2R*)-2-hydroxy-2-methylcyclopentyl]-7-oxo-7,8-dihydropyrido[2,3-d]pyrimidin-2-yl}amino)piperidine-1-sulfonamide] |
| 3.01 | 2.72 | C[C@]1(O)CCC[C@@H]1n1c(=O)ccc2cnc(NC3CCN(S(=O)(=O)CC4CC4)CC3)nc21 (single isomer, unassigned) [Example 91, (+)-2-({1-[(cyclopropylmethyl)sulfonyl]piperidin-4-yl}amino)-8-[(1R*,2R*)-2-hydroxy-2-methylcyclopentyl]pyrido[2,3-d]pyrimidin-7(8H)-one] |
| 1.51 | 2.65 | CS(=O)(=O)N1CCC(Nc2ncc3cc(CCO)c(=O)n(C4CCCCCC4)c3n2)CC1 [Example 165, 8-cycloheptyl-6-(2-hydroxyethyl)-2-{[1-(methylsulfonyl)piperidin-4-yl]amino}-pyrido[2,3-d]pyrimidin-7(8H)-one] |
| 0.21 | 1.24 | CCS(=O)(=O)N1CCC(Nc2ncc3ccc(=O)n([C@@H]4CCC[C@@]4(C)O)c3n2)CC1 (single isomer, unassigned) [Example 76, (−)-2-{[1-(ethylsulfonyl)piperidin-4-yl]amino}-8-[(1R*,2R*)-2-hydroxy-2-methylcyclopentyl]pyrido[2,3-d]pyrimidin-7(8H)-one] |
| 2.23 | 6.71 | CC1CCC[C@@H]1n1c(=O)c(CC(N)=O)cc2cnc(NC3CCN(S(C)(=O)=O)CC3)nc21 (stereo in doubt) [Example 166, 2-(8-[(1S,2S)-2-methylcyclopentyl]-2-{[1-(methylsulfonyl)piperidin-4-yl]amino}-7-oxo-7,8-dihydropyrido[2,3-d]pyrimidin-6-yl)acetamide] |
| 0.16 | 0.11 | Cc1cc2cnc(NC3CCN(S(=O)(=O)C4CCS(=O)(=O)C4)CC3)nc2n([C@@H]2CCC[C@@]2(C)O)c1=O (single isomer, unassigned; isomer a) [Example 106, (−)-2-[(1-{[(3ξ)-1,1-dioxidotetrahydrothiophen-3-yl]sulfonyl}piperidin-4-yl)amino]-8-[(1R*,2R*)-2-hydroxy-2-methylcyclopentyl]-6-methylpyrido[2,3-d]pyrimidin-7(8H)-one-Isomer A] |
| 1.35 | 0.34 | CS(=O)(=O)N1CCC(Nc2ncc3cc(C(F)F)c(=O)n(C4CCCC4)c3n2)CC1 [Example 30, 8-cyclopentyl-6-(difluoromethyl)-2-{[1-(methylsulfonyl)piperidin-4-yl]amino}pyrido[2,3-d]pyrimidin-7(8H)-one] |
| 0.25 | 0.88 | C[C@@]1(O)CCC[C@H]1n1c(=O)ccc2cnc(NC3CCN(S(=O)(=O)CC4CC4)CC3)nc21 (single isomer, unassigned) [Example 90, (−)-2-({1-[(cyclopropylmethyl)sulfonyl]piperidin-4-yl}amino)-8-[(1R*,2R*)-2-hydroxy-2-methylcyclopentyl]pyrido[2,3-d]pyrimidin-7(8H)-one] |

| Structure (SMILES) | Ki (CDK2/Cyclin E1) [nM] | Ki (CDK6/Cyclin D1) [nM] |
| --- | --- | --- |
| CC(C)S(=O)(=O)N1CCC(Nc2ncc3cc(CCO)c(=O)n(C4CCCC4)c3n2)CC1 [Example 136, 8-cyclopentyl-6-(2-hydroxyethyl)-2-{[1-(propan-2-ylsulfonyl)piperidin-4-yl]amino}pyrido[2,3-d]pyrimidin-7(8H)-one] | 3.14 | 1.35 |

Source: US10233188B2, “CDK2/4/6 inhibitors” (priority 2016, dated 2019)
